Results from ChEMBL document CHEMBL5661943, “ASAP - In vitro antiviral effect” (2024).
Values joined by “and” are separate entries in the source; they are usually repeats but may differ in a detail not shown here. Equal values may be shown once.

Assays:
[1] = system: Zika virus; test: (§1) Functional CPE-based assay to measure dose dependent changes in antiviral-drug inhibitory efficacy against Zika virus MR766 in Vero E6 miRFP670 cells. Cells are treated with antiviral candidates that are serially diluted. EC50 is reported via analysis of MTS assay as a readout of CPE. The assay has been performed by KU Leuven.; type: organism-based, Chlorocebus sabaeus, Vero C1008
[2] = system: dengue virus type 2; test: (§2) Functional immunofluorescence assay to measure dose dependent changes in antiviral-drug inhibitory efficacy against Dengue virus type 2 Thailand/16681/84 in Vero E6/TMPRSS2 cells (cotreated with P-gp inhibitor, Elacridar). Cells are treated with antiviral candidates that are serially diluted, following infection, cells are fixed. EC50 is reported via analysis of immunofluorescence staining. The assay has been performed by Icahn School of Medicine at Mount Sinai.; type: organism-based, Chlorocebus sabaeus, VeroE6/TMPRSS2
[3] = system: dengue virus type 2; test: Functional assay to measure dose dependent changes in antiviral-drug inhibitory efficacy against Dengue virus type 2 New Guinea C in Vero E6 miRFP670 cells. Cells are treated with antiviral candidates that are serially diluted, following infection, cells are fixed. EC50 is reported via analysis of fluorescence intensity using high-content imager. The assay has been performed by KU Leuven.; type: organism-based, Chlorocebus sabaeus
[4] = system: Zika virus; test: as §1, with “cells (cotreated with P-gp inhibitor, CP100356).” for “cells.”; type: organism-based, Chlorocebus sabaeus, Vero C1008; conditions: for EC90: Baseline response 0 %, Maximum response 100 %, P-gp inhibitor CP100356
[5] = system: dengue virus type 2; test: Functional assay to measure dose dependent changes in antiviral-drug inhibitory efficacy against Dengue virus type 2 New Guinea C in Vero E6 miRFP670 cells (cotreated with P-gp inhibitor, CP100356). Cells are treated with antiviral candidates that are serially diluted, following infection, cells are fixed. EC50 is reported via analysis of fluorescence intensity using high-content imager. The …; type: organism-based, Chlorocebus sabaeus, Vero C1008
[6] = system: Zika virus; test: EC50 is reported via analysis of immunofluorescence staining. The assay has been performed by Icahn School of Medicine at Mount Sinai.; type: functional, organism-based, Chlorocebus sabaeus, VeroE6/TMPRSS2
[7] = system: Middle East respiratory syndrome-related coronavirus; test: microbe, parasite or virus in culture; type: functional, organism-based, Chlorocebus sabaeus; conditions: VeroE6/TMPRSS2
[8] = system: dengue virus type 2; test: as §1, with “Dengue” for “Zika”, “type 2 New Guinea C” for “MR766”, “Huh7” for “Vero E6 miRFP670”, “MTT/MTS” for “MTS”, “National Institute of Allergy and Infectious Diseases.” for “KU Leuven.”; type: organism-based, Homo sapiens; conditions: Huh-7
[9] = system: dengue virus type 2; test: as §2, with “cells.” for “cells (cotreated with P-gp inhibitor, Elacridar).”; type: organism-based, Chlorocebus sabaeus; conditions: for EC50: VeroE6/TMPRSS2; for EC90: VeroE6/TMPRSS2, Baseline response 0 %, Maximum response 100 %
[10] = system: Zika virus; test: as §2, with “Zika” for “Dengue”, “PRVABC59” for “type 2 Thailand/16681/84”, “cells.” for “cells (cotreated with P-gp inhibitor, Elacridar).”; type: organism-based, Chlorocebus sabaeus; conditions: for EC50: VeroE6/TMPRSS2

Work on `O=C(Nc1ccc2c(c1)CNC2)c1cc(Cl)cc2[nH]ncc12` yielded an EC90 ([1]; Zika virus, Vero C1008, Baseline response 0 %, Hill slope 1.599, Maximum measured 39.692 %, Maximum response 100 %, Minimum measured -0.234 %, R squared 0.961) of over 50 µM, an EC90 ([1]; Zika virus, Vero C1008, Baseline response 0 %, Hill slope 4.496, Maximum measured 86.5 %, Maximum response 100 %, Minimum measured 2.921 %, R squared 0.876) of over 50 µM and an EC90 ([1]; Zika virus, Vero C1008, Baseline response 0 %, EC90 CI (lower) 23.876 uM, EC90 CI (upper) 46.036 uM, Hill slope 2.096, Maximum measured 107.811 %, Maximum response 100 %, Minimum measured 2.258 %, R squared 0.969) of 33.1 µM. For the same compound, the EC50 ([1]; vero c1008) was 34 µM and > 50 µM and 11.6 µM, the EC50 ([2]; Dengue virus, VeroE6/TMPRSS2) was over 50 µM and the EC90 ([2]; Dengue virus, VeroE6/TMPRSS2, Maximum measured 202.528 %, Minimum measured 74.934 %, P-gp concentration 2 uM, P-gp inhibitor Elacidar) was over 50 µM. The EC50 ([3]; Vero C1008) was over 50 µM, the EC90 ([3]; Vero C1008, Baseline response 0 %, Hill slope -0.996, Maximum measured 1.395 %, Maximum response 100 %, Minimum measured -3.373 %, R squared 0.016) was over 50 µM and the EC90 ([4]; EC90 CI (lower) 3.61 uM, EC90 CI (upper) 15.25 uM, Hill slope 2.511, Maximum measured 126.79 %, Minimum measured 6.324 %, P-gp concentration 500 nM, R squared 0.896) was 7.42 µM. For the same compound, the EC50 ([4]; Zika virus, Vero C1008) was 4.57 µM, the EC90 ([4]; Zika virus, Vero C1008, EC90 CI (lower) 7.143 uM, EC90 CI (upper) 23.592 uM, Hill slope 2.106, Maximum measured 121.753 %, Minimum measured 3.066 %, P-gp concentration 100 nM, R squared 0.93) was 13 µM and the EC50 ([4]; vero c1008) was 3.09 µM. The EC50 ([5]; Dengue virus, Vero C1008) was over 50 µM, the EC90 ([5]; Dengue virus, Vero C1008, Maximum measured 2.237 %, Minimum measured -2.116 %, P-gp concentration 100 nM, P-gp inhibitor CP100356) was over 50 µM and the EC90 ([5]; Dengue virus, Vero C1008, Maximum measured 108.122 %, Minimum measured 103.322 %, P-gp concentration 500 nM, P-gp inhibitor CP100356) was over 50 µM. The EC90 ([5]; Dengue virus, Vero C1008, Maximum measured 122.049 %, Minimum measured 106.43 %, P-gp concentration 500 nM, P-gp inhibitor CP100356) was over 50 µM, the EC50 ([6]; Zika virus, VeroE6/TMPRSS2) was 12.7 µM and the EC90 ([6]; Zika virus, VeroE6/TMPRSS2, Baseline response 0 %, Hill slope -1.535, Maximum measured 150.297 %, Maximum response 100 %, Minimum measured 39.396 %, P-gp concentration 2 uM, R squared 0.523, P-gp inhibitor Elacidar) was over 16.7 µM.

`C=CC[C@H](Nc1cccc(-c2nn[nH]n2)c1)c1cc(Cl)cc2[nH]ncc12` was tested, and the EC50 [7] was 0.988 µM and the EC90 [7] was 2.78 µM.

For `CC(C)CNC(=O)c1cc(Cl)c(F)cc1NS(=O)(=O)c1ccc(Oc2ccccc2Cl)cc1`, the EC50 ([1]; Zika virus, Vero C1008) was over 50 µM, the EC90 ([1]; Zika virus, Vero C1008, Baseline response 0 %, Hill slope -1.049, Maximum measured 4.723 %, Maximum response 100 %, Minimum measured -5.364 %, R squared 0.235) was over 50 µM and the EC90 ([1]; Zika virus, Vero C1008, Maximum measured 0.142 %, Minimum measured -3.427 %) was over 50 µM. For the same compound, the EC90 ([1]; Zika virus, Vero C1008, Maximum measured 0.689 %, Minimum measured -11.388 %) was over 50 µM, the EC90 ([2]; Dengue virus, VeroE6/TMPRSS2) was 1.89 µM and the EC90 ([2]; Dengue virus, VeroE6/TMPRSS2, Maximum measured 155.684 %, Minimum measured 125.095 %, P-gp concentration 2 uM, P-gp inhibitor Elacidar) was over 5.56 µM. It also gave an EC50 [8] of over 3.1 µM, an EC90 ([5]; Baseline response 0 %, Hill slope -36.406, Maximum measured 110.21 %, Maximum response 100 %, Minimum measured 0.136 %, P-gp concentration 500 nM, R squared 0.986, P-gp inhibitor CP100356) of 5.99 µM and an EC50 ([5]; Dengue virus, Vero C1008) of 5.32 µM. The EC90 ([5]; Dengue virus, Vero C1008) was 5.85 µM, the EC50 ([5]; vero c1008) was 5.64 µM and the EC50 [9] was 0.193 µM. It also gave an EC90 ([9]; Hill slope -0.469, Maximum measured 101.396 %, Minimum measured 33.359 %, R squared 0.321) of over 1.85 µM, an EC90 ([6]; Baseline response 0 %, Hill slope -1.279, Maximum measured 136.576 %, Maximum response 60 %, Minimum measured 13.183 %, P-gp concentration 2 uM, R squared 0.138, P-gp inhibitor Elacidar) of over 50 µM and an EC90 ([6]; Baseline response 0 %, Hill slope -13.406, Maximum measured 146.245 %, Maximum response 100 %, Minimum measured 54.335 %, P-gp concentration 2 uM, R squared 0.12, P-gp inhibitor Elacidar) of over 16.7 µM. For the same compound, the EC50 ([6]; Zika virus, VeroE6/TMPRSS2) was over 16.7 µM, the EC50 ([6]; veroe6/tmprss2) was 27.9 µM and the EC50 [10] was over 50 µM. The EC90 ([10]; VeroE6/TMPRSS2, Maximum measured 624.218 %, Minimum measured 63.552 %) was over 50 µM.

`CC(C)CNC(=O)c1cc(Cl)ccc1NS(=O)(=O)c1ccc(Oc2ccccc2Cl)cc1` was tested, and the EC50 ([1]; Zika virus, Vero C1008) was over 50 µM, the EC90 ([1]; Zika virus, Vero C1008, Maximum measured -0.388 %, Minimum measured -2.415 %) was over 50 µM and the EC90 ([2]; Baseline response 0 %, EC90 CI (lower) 0.741 uM, EC90 CI (upper) 4.671 uM, Hill slope -3.39, Maximum measured 117.923 %, Maximum response 100 %, Minimum measured 16.6 %, P-gp concentration 2 uM, R squared 0.718, P-gp inhibitor Elacidar) was 6.8 µM. For the same compound, the EC90 ([2]; Baseline response 0 %, EC90 CI (lower) […] uM, EC90 CI (upper) 0.019 uM, Hill slope -1.255, Maximum measured 118.581 %, Maximum response 100 %, Minimum measured 5.952 %, P-gp concentration 2 uM, R squared 0.745, P-gp inhibitor Elacidar) was 0.18 µM, the EC90 ([2]; Dengue virus, VeroE6/TMPRSS2, Maximum measured 165.458 %, Minimum measured 88.019 %, P-gp concentration 2 uM, P-gp inhibitor Elacidar) was over 16.7 µM and the EC50 [8] was over 6.5 µM. The EC50 ([5]; Dengue virus, Vero C1008) was 5.64 µM, the EC90 ([5]; Dengue virus, Vero C1008, Baseline response 0 %, Hill slope -37.142, Maximum measured 110.023 %, Maximum response 100 %, Minimum measured 0.325 %, P-gp concentration 500 nM, R squared 0.985, P-gp inhibitor CP100356) was 5.99 µM and the EC50 [9] was 0.569 µM. The EC90 ([9]; Hill slope -0.624, Maximum measured 99.166 %, Minimum measured 12.707 %, R squared 0.743) was over 16.7 µM, the EC90 ([6]; Baseline response 0 %, EC90 CI (lower) 6.158 uM, EC90 CI (upper) 70.47 uM, Hill slope -6.578, Maximum measured 126.059 %, Maximum response 100 %, Minimum measured 2.779 %, P-gp concentration 2 uM, R squared 0.75, P-gp inhibitor Elacidar) was 40.6 µM and the EC90 ([6]; Zika virus, VeroE6/TMPRSS2) was 32.4 µM. For the same compound, the EC90 ([6]; Zika virus, VeroE6/TMPRSS2, Maximum measured 119.408 %, Minimum measured 55.418 %, P-gp concentration 2 uM, P-gp inhibitor Elacidar) was over 3.33 µM, the EC50 ([6]; veroe6/tmprss2) was > 3.33 µM and 19.2 µM and 29.1 µM and the EC50 [10] was 4.4 µM. The EC90 ([10]; VeroE6/TMPRSS2, Baseline response 0 %, Hill slope -0.566, Maximum measured 86.366 %, Maximum response 100 %, Minimum measured 3.533 %, R squared 0.722) was over 50 µM.
